One data set deals with human PDE4B2 (Homo sapiens, UniProt Q07343). The data set can be described thus: PDE-Glo phosphodiesterase assay, PDE4. It is filed as biochemical. The conditions noted are these: 8 ng PDE4B, 1 μM cAMP substrate, 15 min pre-incubation; read-out: IC50, inhibition of PDE4. As to the method: Method for FIG. 1. […] The compounds and PDE4B (BPS Biosciences, San Diego, CA) were mixed and pre-incubated at room temperature for 15 minutes. Substrate was added and the reaction was incubated for 7 minutes at room temperature. Data are presented as luminescence units (RLU).
Sequence of human PDE4B2 (Q07343 1-564 isoform Q07343-2): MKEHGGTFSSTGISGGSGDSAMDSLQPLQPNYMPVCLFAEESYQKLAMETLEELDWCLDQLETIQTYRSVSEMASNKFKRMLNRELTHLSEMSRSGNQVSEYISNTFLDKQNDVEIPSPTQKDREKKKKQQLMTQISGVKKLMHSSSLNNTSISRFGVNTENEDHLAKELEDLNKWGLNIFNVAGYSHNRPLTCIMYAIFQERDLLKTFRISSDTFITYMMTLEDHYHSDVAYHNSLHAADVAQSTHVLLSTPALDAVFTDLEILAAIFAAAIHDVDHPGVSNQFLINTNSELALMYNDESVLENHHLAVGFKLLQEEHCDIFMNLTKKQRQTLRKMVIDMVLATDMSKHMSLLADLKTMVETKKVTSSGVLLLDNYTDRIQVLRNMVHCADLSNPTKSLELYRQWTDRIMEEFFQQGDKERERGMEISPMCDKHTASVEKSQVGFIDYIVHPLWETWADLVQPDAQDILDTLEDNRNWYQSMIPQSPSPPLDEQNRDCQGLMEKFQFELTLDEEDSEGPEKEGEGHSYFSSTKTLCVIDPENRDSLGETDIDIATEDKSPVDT
Method for FIG. 2. Phosphodiesterase inhibition assays of PDE4 were performed, using PMX-60056. The PDE-Glo phosphodiesterase assay (Promega, Madison, WI, USA Catalog No. V1361) was performed using 8 ng of PDE4B (BPS Biosciences, San Diego, CA). […] The compounds and PDE4B were mixed and pre-incubated at room temperature for 15 minutes. Substrate was added and the reaction was incubated for 7 minutes at room temperature. Data are presented as luminescence units (RLU).
Phosphodiesterase type 4 (PDE4) is predominant phosphodiesterase expressed in neutrophils, T cells and macrophages. PDE inhibitors show broad spectrum of anti-inflammatory effects in almost all inflammatory cells. PDE4 inhibitors, block the degradative action of PDE4 on cAMP, thereby increasing intracellular levels of cAMP levels which mediate phosphorylation of protein kinases. […] Data are presented as luminescence units (RLU).
The PDE-Glo phosphodiesterase assay was performed according to the Method described for FIG. 2, using 8 ng of PDE4B, 1 μM cAMP substrate PMX-60056. Data are presented as luminescence units (RLU). […]

Data set [1] relates to LPS-induced MMP-9 release, NR8383 cells. Put plainly: LPS-induced MMP-9 release in NR8383 rat macrophages (ELISA). The class given is cell-based. As for the experimental part: Method for FIG. 9. […] After 8 hours, supernatants were collected for MMP9 measurement by ELISA using immunoassay kit (R&D Systems, Minneapolis, MN) according to manufacturer's instructions.
The MMP-9 inhibition assay was performed according to the Method described for FIG. 9.
(§1) PDE4 and PDE3 inhibition results in subsequent down-regulation of pro-inflammatory cytokines/chemokines and its regulators, and experiments were conducted to confirm such down-regulation by brilacidin in ex vivo cell-based assays. In these assays, cells were exposed to brilacidin 45 minutes before an 8-hour lipopolysaccharide (LPS) stimulation in the presence of brilacidin; cytokine/enzyme concentrations were determined by ELISA using a standard immunoassay kit.
(In an ELISA, binding on a coated surface is turned into a signal by an enzyme label.)

Data set [2] has as its system LPS-induced IL-6 release, NR8383 cells. Put plainly: LPS-induced IL-6 release in NR8383 rat macrophages (ELISA). It is filed as cell-based. To be noted: Macrophage. As for the experimental part: Method for FIG. 10. […] After 8 hours, supernatants were collected for IL-6 measurement by ELISA using immunoassay kit (R&D Systems, Minneapolis, MN) according to manufacturer's instructions.
The inhibition of IL-6 induction assay was performed according to the Method described for FIG. 10.
as §1

Data set [3] has as its system LPS-induced IL-1β release, NR8383 cells. Put plainly: LPS-induced IL-1β release in NR8383 rat alveolar macrophages (ELISA). The conditions noted are these: Macrophage, 8-hour brilacidin and LPS exposure, read-out: IC50, inhibition of LPS-induced IL-1β release. The class given is cell-based. As for the experimental part: To examine the effect of brilacidin on the pro-inflammatory cytokine IL-1β production in cells, rat alveolar macrophage (NR8383) cells were pretreated with a range of brilacidin concentrations for 45 minutes, followed by treatment with 1 μg/ml LPS from E. coli (Sigma, St. Louis, MO) for 8 hours in the presence of brilacidin. After 8 hours, supernatants were collected for IL-1β measurement by ELISA. IL-1β was measured using an immunoassay kit according to manufacturer's instructions (Thermo Scientific, Rockford, IL).
as §1

The test system of data set [4] is LPS-induced CINC-3 release, NR8383 cells. Put plainly: LPS-induced CINC-3 (CXCL2) release in NR8383 rat alveolar macrophages (ELISA). The class given is cell-based. The conditions noted are these: Macrophage, 8-hour brilacidin and LPS exposure, read-out: IC50, inhibition of LPS-induced CINC-3 release. As to the method:
To examine the effect of brilacidin on production in cells of cytokine-induced neutrophil chemoattractant-3 (CINC-3; CXCL2), rat alveolar macrophage (NR8383) cells were pretreated with a range of brilacidin concentrations for 45 minutes, followed by treatment with 1 μg/ml LPS from E. coli (Sigma, St. Louis, MO) for 8 hours in the presence of brilacidin. After 8 hours, supernatants were collected for CINC-3 measurement by ELISA. CINC-3 was measured using an immunoassay kit according to manufacturer's instructions (R&D Systems, Minneapolis, MN).
as §1

Another data set in a line: in vivo. Also noted: species or system male Balb/c mice. To be noted: mouse, 10 mg/kg. As for the experimental part:
Method for FIG. 12. […] The small intestine with content of each animal for were harvested and placed per animal per tissue into a tube. The small intestine with content samples were snap frozen in dry ice and then stored at −80° C. until bioanalysis. All the samples were labeled with detailed information such as study number, animal number, matrix, and time points of collection and date of collection. In addition, the extra animals obtained for the study, but not placed on study were used for collection of small intestine with content. The resulting small intestine with content samples were then applied to the development of the bioanalytical method and sample bioanalysis in this study. Bioanalytical analysis was performed on samples by LC-MS/MS.
For analyzing the contents of the small intestine, small intestine samples were homogenized by adding saline (1 g small intestine: 5 mL saline). Small intestine homogenates (50 μL) were transferred to tubes and 250 μL internal standard (IS) working solution (50 ng/mL Carvedilol) was added to each sample. After vortexing for 1 minute and centrifuging for 5 minutes at 15,000 rpm, 100 μL aliquots of supernatant were transferred to glass autosampler vials.
Method for FIG. 13. […] The ratios versus time are shown.
At 1 hour, the concentration in the small intestine peaked at 38,941±4703 ng/gram of tissue (FIG. 12).

“And” between values parts separate entries of the source, which are not always exact repeats. Equal entries are not always repeated. Structures can show the parent of a compound that is named as a salt.

By IC50 is commonly meant the concentration needed to halve the response being measured. In general, Cmax refers to the highest concentration seen after dosing. The Tmax is the time from dosing to the highest level. What is called half-life is the time in which the quantity being followed falls by half. High values mean slow loss, low ones fast loss. As to `N=C(N)NCCCCC(=O)Nc1cc(C(F)(F)F)cc(NC(=O)c2cc(C(=O)Nc3cc(C(F)(F)F)cc(NC(=O)CCCCNC(=N)N)c3O[C@@H]3CCNC3)ncn2)c1O[C@@H]1CCNC1` [PMX-30063, N^4,N^6-bis(2-((R)-pyrrolidin-3-yloxy)-3-((4-carbamoylbutyl)guanidine)-5-(trifluoromethyl)phenyl)pyrimidine-4,6-dicarboxamide tetrahydrochloride salt], on human PDE4B2, the IC50 was ~3000 nM and 3000 nM. For the same compound, the IC50 in data set [1] (Rattus norvegicus, Macrophage, NR8383 cells, ELISA, 45 min pretreatment, 8-hour LPS, read-out: IC50, inhibition of LPS-induced MMP-9 release) is 2300 nM. In addition, the “decrease in MMP-9 levels” value in data set [1] (at 12.5 μM, NR8383, LPS 1 μg/ml 8 h) was 50%. Besides, the IC50 in data set [2] (NR8383 cells, ELISA, 45 min pretreatment, 8-hour LPS, read-out: IC50, inhibition of LPS-induced IL-6 release) was found to be 274 nM. In addition, the inhibition at 0.5 µM in data set [2] (at 0.5 μM, NR8383, LPS 1 μg/ml 8 h, read-out: decrease in IL-6 levels / inhibition of LPS induced IL-6 production) was approximately 50%. For the same compound, the IC50 in data set [3] was 702 nM. For the same compound, in data set [4], the IC50 is 425 nM. Also, in the data set “in vivo” (male, Balb/c), the “total exposure (AUC) in the blood upon oral administration” value is “less than 0.5%”. Moreover, in the data set “in vivo” (male, Balb/c, po), the Cmax worked out at 38900 ng/g, the Kp lay within 2240 to 4320, the Tmax was found to be 60 min and the half-life is 47.4 min. Further, in “in vivo” (po), the “AUC(0-t)” value worked out at 86089 ng·h/g, the “AUC(0-∞)” value was determined as 89525 ng·h/g and the “MRT(0-∞)” value amounted to 1.52 H.

Source of the values: US20230310435A1, “HOST DEFENSE PROTEIN (HDP) MIMETICS FOR PROPHYLAXIS AND/OR TREATMENT OF INFLAMMATORY DISEASES OF THE GASTROINTESTINAL TRACT” (priority 2015, published 2023).
